# Measured values: PubChem BioAssay (NCI)
#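 1) Cells in 96-well plates. 2) Compound, 48 h, 5 concentrations. 3) Linear interpolation between surrounding doses. 4) Unreached endpoint = highest concentration. TGI denotes the concentration required for complete inhibition of growth.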
# What was measured:
# Experiment in all cases: NCI tumour cell line growth inhibition, 48 h
# [1] = tested on: PC-3 prostate
# [2] = tested on: UACC-257 melanoma
# [3] = tested on: HT29 colon
# [4] = tested on: RPMI-8226 leukemia
# [5] = tested on: MDA-MB-231 breast
# [6] = tested on: SNB-19 CNS
# [7] = tested on: EKVX NSCLC
# [8] = tested on: MALME-3M melanoma
# [9] = tested on: NCI/ADR-RES ovarian
# [10] = tested on: SF-268 CNS
# [11] = tested on: DU-145 prostate
# [12] = tested on: NCI-H522 lung
# [13] = tested on: UO-31 renal
# [14] = tested on: HS 578T breast
# [15] = tested on: K-562 leukemia
# [16] = tested on: U251 CNS
# [17] = tested on: NCI-H226 lung
# [18] = tested on: SK-MEL-28 melanoma
# [19] = tested on: SK-OV-3 ovarian
# [20] = tested on: SW-620 colon
# [21] = tested on: UACC-62 melanoma
# [22] = tested on: SF-539 CNS
# [23] = tested on: HCC-2998 colon
# [24] = tested on: KM12 colon
# [25] = tested on: ACHN renal
# [26] = tested on: 786-0 renal
# [27] = tested on: SF-295 CNS
# [28] = tested on: OVCAR-3 ovarian
# [29] = tested on: SK-MEL-5 melanoma
# [30] = tested on: BT-549 breast
# [31] = tested on: OVCAR-5 ovarian
# [32] = tested on: HCT-116 colon
# [33] = tested on: SK-MEL-2 melanoma
# [34] = tested on: NCI-H460 lung
# [35] = tested on: TK-10 renal
# [36] = tested on: HOP-92 NSCLC
# [37] = tested on: HOP-62 NSCLC
# [38] = tested on: OVCAR-8 ovarian
# [39] = tested on: SN12C renal
# [40] = tested on: MOLT-4 leukemia
# [41] = tested on: RXF 393 renal
# [42] = tested on: MCF7 breast
# [43] = tested on: T-47D breast
# [44] = tested on: COLO 205 colon
# [45] = tested on: IGROV1 ovarian
# [46] = tested on: M14 melanoma
# [47] = tested on: A549 NSCLC
# [48] = tested on: CAKI-1 renal
smiles,measurement,setting,value
COc1ccc2nc3cc(Cl)ccc3c(NCCCN(Cc3cc(OC)c(OC)c(OC)c3)Cc3cc(OC)c(OC)c(OC)c3)c2c1,TGI,[1],30.6 µM
same,TGI,[2],28.8 µM
same,TGI,[3],16.6 µM
same,TGI,[4],32 µM
same,TGI,[5],10.6 µM
same,TGI,[6],35.8 µM
same,TGI,[7],37.4 µM
same,TGI,[8],44.1 µM
same,TGI,[9],86.5 µM
same,TGI,[10],41.7 µM
same,TGI,[11],27.3 µM
same,TGI,[12],25.4 µM
same,TGI,[13],26.1 µM
same,TGI,[14],36.6 µM
same,TGI,[15],3.77 µM
same,TGI,[16],17.3 µM
same,TGI,[17],34.5 µM
same,TGI,[18],33.2 µM
same,TGI,[19],32.8 µM
same,TGI,[20],3.22 µM
same,TGI,[21],32.3 µM
same,TGI,[22],10.5 µM
same,TGI,[23],37.3 µM
same,TGI,[24],28.3 µM
same,TGI,[25],27.2 µM
same,TGI,[26],32.1 µM
same,TGI,[27],12.1 µM
same,TGI,[28],34.6 µM
same,TGI,[29],2.61 µM
same,TGI,[30],28 µM
same,TGI,[31],27.9 µM
same,TGI,[32],1.7 µM
same,TGI,[33],72.1 µM
same,TGI,[34],23.6 µM
same,TGI,[35],44.1 µM
same,TGI,[36],23.7 µM
same,TGI,[37],24.4 µM
same,TGI,[38],25.5 µM
same,TGI,[39],41 µM
same,TGI,[40],7.11 µM
same,TGI,[41],15.2 µM
same,TGI,[42],30.4 µM
same,TGI,[43],47.4 µM
same,TGI,[44],23.5 µM
same,TGI,[45],35.1 µM
same,TGI,[46],3.45 µM
same,TGI,[47],30.7 µM
same,TGI,[48],30.3 µM
